The values that follow come from PMC10338423, “Synthesis and preclinical evaluation of a novel fluorine-18 labeled small-molecule PET radiotracer for imaging of CXCR3 receptor in mouse models of atherosclerosis” (EJNMMI Research, 2023).

The nature of the series: Biodistribution study in normal C57BL/6 mice. It is filed as in vivo, mouse. Here is the method: Biodistribution studies were also performed to discover the drug distribution within normal mice. 17-week-old male and female C57BL/6 mice were purchased to match the age of the imaging study group. [^18F]1 was intravenously injected into these mice (N = 4/time point), then they were sacrificed at 10, 30, and 60 min after the injection. Their major organs, including the brain, blood, lung, liver, stomach, heart, spleen, kidney, muscle, bone, large intestine, small intestine, aorta, liquinal lymph nodes (LN), interscapular BAT, and tail, were harvested. Their radioactivity was counted by an automated γ-counter. The biodistribution was calculated as an average of the percent injected dose per gram tissue (%ID/g tissue) where the counted radioactivity of each organ was divided by the weight of each tissue and the total radioactivity that circulated in the mouse body at the time of the euthanasia.
Seventeen-week-old male and female C57BL/6 mice were purchased to match the age of PET imaging mice. They were anesthetized in the anesthesia chamber using 3% isoflurane in oxygen and received 0.74–1.11 MBq of [^18F]1 in 100 μL of 5–10% EtOH in saline containing 0.5% sodium ascorbate. The injected mice were returned to their cages and free until the time of the study. At 10, 30, and 60 min after the [^18F]1 administration, each mouse (N = 4/time point) was anesthetized again and euthanized by cervical dislocation followed by cardiac puncture to take a blood sample. Then, the following organs were harvested: the brain, blood, heart, liver, lung, stomach, large intestine, small intestine, spleen, kidney, bone, muscle, liquinal LN, interscapular BAT, and tail. The radioactivity of each organ was counted by a PerkinElmer Wallac 1480 Wizard^3 Gamma Counter (Waltham, MA). The whole radioactivity that went into the circulation of the mouse was calculated by subtracting the residual radioactivity in the tail from the injected radioactivity. Therefore, the biodistribution was calculated as an average of the percent injected dose per gram of tissue (%ID/g tissue) by dividing the measured radioactivity by the whole radioactivity that actually went into the body and the weight of the tissue.

Setting [1] is: 10 min p.i., i.v., C57BL/6 mice.

The structures appear in SMILES notation.

`CC[C@H]1CN(c2ncc(-c3nnco3)cc2Cl)CCN1C1CCN(Cc2ccc(Cl)cc2[18F])CC1` [[^18F]1]: under setting [1], the “uptake in BAT” value amounted to 15 % ID/g, the uptake in aorta turned out to be 13 % ID/g, the uptake in heart turned out to be 12 % ID/g and the uptake in kidney was 22 % ID/g. In addition, under setting [1], the uptake in liver is 12 % ID/g and the uptake in lung was 27 % ID/g. The “uptake remaining relative to 10 min p.i. (lung, kidney, BAT, aorta, heart)” value (30 min p.i.) is listed as ~ 60%. For the setting “30 min p.i., i.v., C57BL/6 mice”, this compound displayed an uptake in liver of 22 % ID/g. Further, for the setting “60 min p.i.”, the “uptake remaining relative to 10 min p.i. (lung, kidney, BAT, aorta, heart)” value is ~ 40%.
